{"source": "paper PMC9783573", "about": "“Introduction of a SiFA Moiety into the D-Glutamate Chain of DOTA-PP-F11N Results in Radiohybrid-Based CCK-2R-Targeted Compounds with Improved Pharmacokinetics In Vivo” (Pharmaceuticals, 2022)", "note": "Starred links: 1 amine or outer side, 2 acyl side, 3 side chain; linkers in the order of their positions; H or OH if unused. Non-standard residues stand in square brackets, D forms with d. Residues, ends and D or L forms follow the SMILES beside them. *: point of attachment. X1 = O=C(O)CN1CCN(CC(=O)O)CCN([C@H](CCC(=O)*)C(=O)O)CCN(CC(=O)O)CC1; Benzoyl(4-SiFtBu2) = CC(C)(C)[Si](F)(c1ccc(C(=O)*)cc1)C(C)(C)C; DOTA = O=C(O)CN1CCN(CC(=O)O)CCN(CC(=O)*)CCN(CC(=O)O)CC1; d(γGlu) = O=C(O)[C@@H](CCC(=O)[*:2])N[*:1]; Nle = CCCC[C@H](N)C(=O)O; dDap = NC[C@@H](N)C(=O)O"}
{"assay": "Lipophilicity, n-octanol/PBS (pH 7.4) distribution coefficient", "format": "physicochemical", "conditions": "177Lu-labelled peptide; n-octanol/PBS pH 7.4; read-out: logD7.4", "method": "(§1) Lipophilicity (depicted as octanol-phosphate-buffered saline solution (PBS, pH = 7.4) distribution coefficient, logD7.4) was determined via dissolving the ^177Lu-labelled peptide (approx. 1 MBq) in a mixture (1/1, v/v) of n-octanol and PBS. The suspension was vortexed in a reaction vial (1.5 mL) for 3 min at RT and the vial was centrifuged at 9000× […] for 5 min (Biofuge 15, Heraus Sepatech GmbH, Osterode, Germany). 200 μL aliquots of both layers were measured separately in a γ-counter (Perkin Elmer, Waltham, MA, USA). The experiment was repeated at least five times."}
{"smiles": "CCCC[C@H](NC(=O)[C@H](Cc1c[nH]c2ccccc12)NC(=O)CNC(=O)[C@H](Cc1ccc(O)cc1)NC(=O)[C@H](C)NC(=O)CC[C@@H](NC(=O)CC[C@@H](NC(=O)CC[C@@H](NC(=O)CC[C@@H](NC(=O)CC[C@@H](NC(=O)[C@@H](CNC(=O)c1ccc([Si](F)(C(C)(C)C)C(C)(C)C)cc1)NC(=O)CC[C@@H](NC(=O)CC[C@H](C(=O)O)N1CCN(CC(=O)O)CCN(CC(=O)O)CCN(CC(=O)O)CC1)C(=O)O)C(=O)O)C(=O)O)C(=O)O)C(=O)O)C(=O)O)C(=O)N[C@@H](CC(=O)O)C(=O)N[C@@H](Cc1ccccc1)C(N)=O", "note": "[[nat/177Lu]Lu-(R)-DOTAGA-rhCCK-15, metal not drawn] ({X1-d(γGlu)}-[dDap](Benzoyl(4-SiFtBu2))[d(γGlu)][d(γGlu)][d(γGlu)][d(γGlu)][d(γGlu)]AYGW[Nle]DF-NH2)", "logD": "-2.5 ± 0.02"}
{"smiles": "CCCC[C@H](NC(=O)[C@H](Cc1c[nH]c2ccccc12)NC(=O)CNC(=O)[C@H](Cc1ccc(O)cc1)NC(=O)[C@H](C)NC(=O)[C@@H](CCC(=O)O)NC(=O)[C@@H](CCC(=O)O)NC(=O)[C@@H](CCC(=O)O)NC(=O)[C@@H](CNC(=O)c1ccc([Si](F)(C(C)(C)C)C(C)(C)C)cc1)NC(=O)[C@@H](CCC(=O)O)NC(=O)[C@@H](CCC(=O)O)NC(=O)[C@@H](CCC(=O)O)NC(=O)CC[C@H](C(=O)O)N1CCN(CC(=O)O)CCN(CC(=O)O)CCN(CC(=O)O)CC1)C(=O)N[C@@H](CC(=O)O)C(=O)N[C@@H](Cc1ccccc1)C(N)=O", "note": "[[nat/177Lu]Lu-(R)-DOTAGA-rhCCK-4, metal not drawn] (X1-[dE][dE][dE][dDap](Benzoyl(4-SiFtBu2))[dE][dE][dE]AYGW[Nle]DF-NH2)", "logD": "-2.19 ± 0.08"}
{"smiles": "CCCC[C@H](NC(=O)[C@H](Cc1c[nH]c2ccccc12)NC(=O)CNC(=O)[C@H](Cc1ccc(O)cc1)NC(=O)[C@H](C)NC(=O)[C@@H](CCC(=O)O)NC(=O)[C@@H](CCC(=O)O)NC(=O)[C@@H](CCC(=O)O)NC(=O)[C@@H](CCC(=O)O)NC(=O)[C@@H](CCC(=O)O)NC(=O)[C@@H](CCC(=O)O)NC(=O)[C@@H](CNC(=O)c1ccc([Si](F)(C(C)(C)C)C(C)(C)C)cc1)NC(=O)CC[C@H](C(=O)O)N1CCN(CC(=O)O)CCN(CC(=O)O)CCN(CC(=O)O)CC1)C(=O)N[C@@H](CC(=O)O)C(=O)N[C@@H](Cc1ccccc1)C(N)=O", "note": "[[nat/177Lu]Lu-(R)-DOTAGA-rhCCK-7, metal not drawn] (X1-[dDap](Benzoyl(4-SiFtBu2))[dE][dE][dE][dE][dE][dE]AYGW[Nle]DF-NH2)", "logD": "-2.63 ± 0.08"}
{"smiles": "CCCC[C@H](NC(=O)[C@H](Cc1c[nH]c2ccccc12)NC(=O)CNC(=O)[C@H](Cc1ccc(O)cc1)NC(=O)[C@H](C)NC(=O)[C@@H](CCC(=O)O)NC(=O)[C@@H](CCC(=O)O)NC(=O)[C@@H](CCC(=O)O)NC(=O)[C@@H](CCC(=O)O)NC(=O)[C@@H](CNC(=O)c1ccc([Si](F)(C(C)(C)C)C(C)(C)C)cc1)NC(=O)[C@@H](CCC(=O)O)NC(=O)[C@@H](CCC(=O)O)NC(=O)CC[C@H](C(=O)O)N1CCN(CC(=O)O)CCN(CC(=O)O)CCN(CC(=O)O)CC1)C(=O)N[C@@H](CC(=O)O)C(=O)N[C@@H](Cc1ccccc1)C(N)=O", "note": "[[nat/177Lu]Lu-(R)-DOTAGA-rhCCK-5, metal not drawn] (X1-[dE][dE][dDap](Benzoyl(4-SiFtBu2))[dE][dE][dE][dE]AYGW[Nle]DF-NH2)", "logD": "-2.67 ± 0.05"}
{"smiles": "CCCC[C@H](NC(=O)[C@H](Cc1c[nH]c2ccccc12)NC(=O)CNC(=O)[C@H](Cc1ccc(O)cc1)NC(=O)[C@H](C)NC(=O)CC[C@@H](NC(=O)CC[C@@H](NC(=O)CC[C@@H](NC(=O)CC[C@@H](NC(=O)CC[C@@H](NC(=O)CC[C@@H](NC(=O)CC[C@@H](NC(=O)CC[C@@H](NC(=O)[C@@H](CNC(=O)c1ccc([Si](F)(C(C)(C)C)C(C)(C)C)cc1)NC(=O)CC[C@H](C(=O)O)N1CCN(CC(=O)O)CCN(CC(=O)O)CCN(CC(=O)O)CC1)C(=O)O)C(=O)O)C(=O)O)C(=O)O)C(=O)O)C(=O)O)C(=O)O)C(=O)O)C(=O)N[C@@H](CC(=O)O)C(=O)N[C@@H](Cc1ccccc1)C(N)=O", "note": "[[nat/177Lu]Lu-(R)-DOTAGA-rhCCK-18, metal not drawn]", "logD": "-2.16 ± 0.09"}
{"smiles": "CCCC[C@H](NC(=O)[C@H](Cc1c[nH]c2ccccc12)NC(=O)CNC(=O)[C@H](Cc1ccc(O)cc1)NC(=O)[C@H](C)NC(=O)CC[C@@H](NC(=O)CC[C@@H](NC(=O)[C@@H](CNC(=O)c1ccc([Si](F)(C(C)(C)C)C(C)(C)C)cc1)NC(=O)CC[C@@H](NC(=O)CC[C@@H](NC(=O)CC[C@@H](NC(=O)CC[C@@H](NC(=O)CC[C@H](C(=O)O)N1CCN(CC(=O)O)CCN(CC(=O)O)CCN(CC(=O)O)CC1)C(=O)O)C(=O)O)C(=O)O)C(=O)O)C(=O)O)C(=O)O)C(=O)N[C@@H](CC(=O)O)C(=O)N[C@@H](Cc1ccccc1)C(N)=O", "note": "[[nat/177Lu]Lu-(R)-DOTAGA-rhCCK-12, metal not drawn] ({X1-d(γGlu)-d(γGlu)-d(γGlu)-d(γGlu)}-[dDap](Benzoyl(4-SiFtBu2))[d(γGlu)][d(γGlu)]AYGW[Nle]DF-NH2)", "logD": "-2.34 ± 0.05"}
{"smiles": "CCCC[C@H](NC(=O)[C@H](Cc1c[nH]c2ccccc12)NC(=O)CNC(=O)[C@H](Cc1ccc(O)cc1)NC(=O)[C@H](C)NC(=O)[C@@H](CNC(=O)c1ccc([Si](F)(C(C)(C)C)C(C)(C)C)cc1)NC(=O)[C@@H](CCC(=O)O)NC(=O)[C@@H](CCC(=O)O)NC(=O)[C@@H](CCC(=O)O)NC(=O)[C@@H](CCC(=O)O)NC(=O)[C@@H](CCC(=O)O)NC(=O)[C@@H](CCC(=O)O)NC(=O)CC[C@H](C(=O)O)N1CCN(CC(=O)O)CCN(CC(=O)O)CCN(CC(=O)O)CC1)C(=O)N[C@@H](CC(=O)O)C(=O)N[C@@H](Cc1ccccc1)C(N)=O", "note": "[[nat/177Lu]Lu-(R)-DOTAGA-rhCCK-1, metal not drawn] (X1-[dE][dE][dE][dE][dE][dE][dDap](Benzoyl(4-SiFtBu2))AYGW[Nle]DF-NH2)", "logD": "-1.71 ± 0.1"}
{"smiles": "CCCC[C@H](NC(=O)[C@H](Cc1c[nH]c2ccccc12)NC(=O)CNC(=O)[C@H](Cc1ccc(O)cc1)NC(=O)[C@H](C)NC(=O)[C@@H](CNC(=O)c1ccc([Si](F)(C(C)(C)C)C(C)(C)C)cc1)NC(=O)CC[C@@H](NC(=O)CC[C@@H](NC(=O)CC[C@@H](NC(=O)CC[C@@H](NC(=O)CC[C@@H](NC(=O)CC[C@@H](NC(=O)CC[C@H](C(=O)O)N1CCN(CC(=O)O)CCN(CC(=O)O)CCN(CC(=O)O)CC1)C(=O)O)C(=O)O)C(=O)O)C(=O)O)C(=O)O)C(=O)O)C(=O)N[C@@H](CC(=O)O)C(=O)N[C@@H](Cc1ccccc1)C(N)=O", "note": "[[nat/177Lu]Lu-(R)-DOTAGA-rhCCK-10, metal not drawn] ({X1-d(γGlu)-d(γGlu)-d(γGlu)-d(γGlu)-d(γGlu)-d(γGlu)}-[dDap](Benzoyl(4-SiFtBu2))AYGW[Nle]DF-NH2)", "logD": "-2.15 ± 0.08"}
{"smiles": "CCCC[C@H](NC(=O)[C@H](Cc1c[nH]c2ccccc12)NC(=O)CNC(=O)[C@H](Cc1ccc(O)cc1)NC(=O)[C@H](C)NC(=O)CC[C@@H](NC(=O)CC[C@@H](NC(=O)CC[C@@H](NC(=O)CC[C@@H](NC(=O)CC[C@@H](NC(=O)CC[C@@H](NC(=O)CC[C@@H](NC(=O)[C@@H](CNC(=O)c1ccc([Si](F)(C(C)(C)C)C(C)(C)C)cc1)NC(=O)CC[C@H](C(=O)O)N1CCN(CC(=O)O)CCN(CC(=O)O)CCN(CC(=O)O)CC1)C(=O)O)C(=O)O)C(=O)O)C(=O)O)C(=O)O)C(=O)O)C(=O)O)C(=O)N[C@@H](CC(=O)O)C(=O)N[C@@H](Cc1ccccc1)C(N)=O", "note": "[[nat/177Lu]Lu-(R)-DOTAGA-rhCCK-17, metal not drawn]", "logD": "-2.1 ± 0.06"}
{"smiles": "CCCC[C@H](NC(=O)[C@H](Cc1c[nH]c2ccccc12)NC(=O)CNC(=O)[C@H](Cc1ccc(O)cc1)NC(=O)[C@H](C)NC(=O)[C@@H](CCC(=O)O)NC(=O)[C@@H](CCC(=O)O)NC(=O)[C@@H](CCC(=O)O)NC(=O)[C@@H](CCC(=O)O)NC(=O)[C@@H](CCC(=O)O)NC(=O)[C@@H](CCC(=O)O)NC(=O)[C@@H](CCC(=O)O)NC(=O)[C@@H](CNC(=O)c1ccc([Si](F)(C(C)(C)C)C(C)(C)C)cc1)NC(=O)CC[C@H](C(=O)O)N1CCN(CC(=O)O)CCN(CC(=O)O)CCN(CC(=O)O)CC1)C(=O)N[C@@H](CC(=O)O)C(=O)N[C@@H](Cc1ccccc1)C(N)=O", "note": "[[nat/177Lu]Lu-(R)-DOTAGA-rhCCK-8, metal not drawn] (X1-[dDap](Benzoyl(4-SiFtBu2))[dE][dE][dE][dE][dE][dE][dE]AYGW[Nle]DF-NH2)", "logD": "-2.19 ± 0.08"}
{"smiles": "CCCC[C@H](NC(=O)[C@H](Cc1c[nH]c2ccccc12)NC(=O)CNC(=O)[C@H](Cc1ccc(O)cc1)NC(=O)[C@H](C)NC(=O)CC[C@@H](NC(=O)CC[C@@H](NC(=O)CC[C@@H](NC(=O)[C@@H](CNC(=O)c1ccc([Si](F)(C(C)(C)C)C(C)(C)C)cc1)NC(=O)CC[C@@H](NC(=O)CC[C@@H](NC(=O)CC[C@@H](NC(=O)CC[C@H](C(=O)O)N1CCN(CC(=O)O)CCN(CC(=O)O)CCN(CC(=O)O)CC1)C(=O)O)C(=O)O)C(=O)O)C(=O)O)C(=O)O)C(=O)O)C(=O)N[C@@H](CC(=O)O)C(=O)N[C@@H](Cc1ccccc1)C(N)=O", "note": "[[nat/177Lu]Lu-(R)-DOTAGA-rhCCK-13, metal not drawn] ({X1-d(γGlu)-d(γGlu)-d(γGlu)}-[dDap](Benzoyl(4-SiFtBu2))[d(γGlu)][d(γGlu)][d(γGlu)]AYGW[Nle]DF-NH2)", "logD": "-2.57 ± 0.06"}
{"assay": "Lipophilicity, n-octanol/PBS (pH 7.4) distribution coefficient", "format": "physicochemical", "conditions": "pH 7.4", "method": "as §1"}
{"smiles": "CCCC[C@H](NC(=O)[C@H](Cc1c[nH]c2ccccc12)NC(=O)CNC(=O)[C@H](Cc1ccc(O)cc1)NC(=O)[C@H](C)NC(=O)CC[C@@H](NC(=O)CC[C@@H](NC(=O)CC[C@@H](NC(=O)CC[C@@H](NC(=O)CC[C@@H](NC(=O)CC[C@@H](NC(=O)CN1CCN(CC(=O)O)CCN(CC(=O)O)CCN(CC(=O)O)CC1)C(=O)O)C(=O)O)C(=O)O)C(=O)O)C(=O)O)C(=O)O)C(=O)N[C@@H](CC(=O)O)C(=O)N[C@@H](Cc1ccccc1)C(N)=O", "note": "[[nat/177Lu]Lu-DOTA-PP-γ-F11N, metal not drawn] ({DOTA-d(γGlu)-d(γGlu)-d(γGlu)-d(γGlu)-d(γGlu)-d(γGlu)}-AYGW[Nle]DF-NH2)", "logD": "-4.38 ± 0.05"}
